The results in this text go back to ChEMBL document CHEMBL1770141, “Quinolino-benzo-[5, 6]-dihydroisoquindolium compounds derived from berberine: a new class of highly selective ligands for G-quadruplex DNA in c-myc oncogene” (Eur J Med Chem, 2011).

One may read the ΔTm as the change in melting temperature against a reference sample. The IC50 is the concentration needed to halve the response being measured. Low values mean greater potency in that assay, high ones weaker potency in that assay.

Experiment [1] deals with Nucleic Acid. Description: Thermal stability of c-MYC FPu18T G-quadruplex DNA assessed as stabilization temperature at 2 uM by FRET assay. Format: nucleic-acid assay.
Experiment [2] can be described thus: Cytotoxicity against human GLC82 cells after 48 hrs by MTT assay. Type of experiment: functional, cell-based. As to conditions: GLC82, 48 h.
Experiment [3] concerns ECV-304. Description: Cytotoxicity against human ECV304 cells after 48 hrs by MTT assay. As to conditions: ECV-304, 48 h. Type of experiment: functional, cell-based. In general terms: Tetrazolium dyes change colour on reduction, which living cells bring about.
Experiment [4] concerns HL-60. Description: Cytotoxicity against human HL60 cells after 48 hrs by MTT assay. Format: functional, cell-based. The following applies: HL-60, 48 h.
Another experiment concerns NCI-H460. Put plainly: Cytotoxicity against human NCI-H460 cells after 48 hrs by MTT assay. Type of experiment: functional, cell-based. The following applies: NCI-H460, 48 h.
The test system of experiment [5] is Nucleic Acid. Put plainly: Inhibition of c-myc G-quadruplex formation in oligonucleotide Pu27 after 3 mins by PCR stop assay. Format: nucleic-acid assay.
The test system of experiment [6] is Nucleic Acid. Put plainly: Thermal stability of F10T duplex DNA assessed as stabilization temperature at 2 uM by FRET assay. Type of experiment: nucleic-acid assay.
The test system of experiment [7] is Nucleic Acid. Put plainly: Thermal stability of c-MYC FPu18T G-quadruplex DNA assessed as stabilization temperature at 2 uM by FRET assay in presence of 10 uM duplex DNA competitor. Format: nucleic-acid assay.
Experiment [8] relates to Nucleic Acid. Description: Binding affinity to oligonucleotide Pu18 DNA assessed as induction of Pu18G-quadruplex DNA negative peak at 240 nm bandwidth by circula dichroism spectroscopy. Type of experiment: nucleic-acid assay.
The subject of experiment [9] is ECV-304. Description: Inhibition of c-myc gene transcription in human ECV304 cells assessed as c-myc mRNA level normalized to GAPDH mRNA level by RT-PCR. Type of experiment: functional, cell-based.
In experiment [10] the test system is Nucleic Acid. Description: Binding affinity to oligonucleotide Pu18 DNA assessed as induction of Pu18G-quadruplex DNA positive shift to at 262 nm bandwidth by circula dichroism spectroscopy. Format: nucleic-acid assay.
The subject of experiment [11] is ECV-304. Description: Induction of growth phase arrest in human ECV304 cells at 0.5 uM after 16 days. Type of experiment: functional, cell-based.
Experiment [12] relates to Nucleic Acid. Put plainly: Binding affinity to oligonucleotide Pu18 DNA assessed as induction of Pu18G-quadruplex DNA at 262 nm bandwidth by circula dichroism spectroscopy. Format: nucleic-acid assay.
Experiment [13] concerns HL-60. Put plainly: Inhibition of c-myc gene transcription in human HL60 cells assessed as c-myc mRNA level normalized to GAPDH mRNA level by RT-PCR. Format: functional, cell-based.
Experiment [14] relates to HL-60. Put plainly: Induction of growth phase arrest in human HL60 cells expressing c-myc gene at 0.5 uM after 16 days. Format: functional, cell-based.

Active and inactive are the calls of the source. The rule behind the calls is not given here.

For `COc1ccc2cc3[n+](cc2c1NCCCN1CCOCC1)CCc1cc2c(cc1-3)OCO2`, the ΔTm in the experiment on Nucleic Acid [1] was 17 °C; with Nucleic Acid [6] it was 0 °C. Further, the IC50 in [2] was 85 µM; in the experiment on ECV-304 [3], over 100 µM; in the experiment with HL-60 [4], 20.6 µM; with NCI-H460 it was over 100 µM; in the experiment with Nucleic Acid [5] it was 4.8 µM.
Regarding `COc1ccc2cc3[n+](c4c2c1N(CCCN1CCOCC1)C=C4)CCc1cc2c(cc1-3)OCO2`, the ΔTm worked out at 23 °C with Nucleic Acid [1], 23 °C with Nucleic Acid [7] and 0 °C in the experiment with Nucleic Acid [6]. Also, the IC50 in [2] is 30 µM; with ECV-304 [3], over 100 µM; with HL-60 [4], 12.6 µM; in the experiment with NCI-H460, 36 µM; in the experiment with Nucleic Acid [5] it was 4.3 µM.
Turning to `COc1ccc2cc3[n+](c4c2c1N(CCCCCCN)C=C4)CCc1cc2c(cc1-3)OCO2`, the ΔTm in the experiment on Nucleic Acid [1] was 29 °C; with Nucleic Acid [7], 27.5 °C; with Nucleic Acid [6], 0.5 °C. Besides, the IC50 in [2] is 10 µM; in the experiment with ECV-304 [3], over 100 µM; with HL-60 [4], 2 µM; in the experiment on NCI-H460 it was 13 µM; in the experiment on Nucleic Acid [5], 1.9 µM. Moreover, the outcome with Nucleic Acid [8], with Nucleic Acid [10], in the experiment with Nucleic Acid [12] and in the experiment with HL-60 [14] was Active. Further, the inhibition result in the experiment on ECV-304 [9] is “inactive”. Moreover, in the experiment with ECV-304 [11], the outcome was inactive. Also, the inhibition result in the experiment with HL-60 [13] was “Active”.
For `COc1ccc2cc3[n+](cc2c1OC)CCc1cc2c(cc1-3)OCO2`, the ΔTm is 1 °C in the experiment with Nucleic Acid [1] and 2 °C in the experiment with Nucleic Acid [6].
In the case of `COc1ccc2cc3[n+](c4c2c1N(CCN(C)C)C=C4)CCc1cc2c(cc1-3)OCO2`, the figures for the ΔTm in the experiment on Nucleic Acid [1], in the experiment on Nucleic Acid [7] and with Nucleic Acid [6] were 20 °C, 19.5 °C and 0 °C, respectively. In addition, the IC50 is 31 µM in [2]; over 100 µM in the experiment on ECV-304 [3]; 12 µM in the experiment on HL-60 [4]; 60 µM in the experiment on NCI-H460; 3.4 µM in the experiment on Nucleic Acid [5].
With `COc1ccc2cc3[n+](c4c2c1N(CCCN(C)C)C=C4)CCc1cc2c(cc1-3)OCO2`, the figures for the ΔTm in the experiment with Nucleic Acid [1], in the experiment with Nucleic Acid [7] and in the experiment on Nucleic Acid [6] were 25 °C, 24 °C and 0 °C, respectively. For the same compound, the IC50 is 5 µM in [2]; over 100 µM in the experiment on ECV-304 [3]; 8 µM in the experiment with HL-60 [4]; 9 µM with NCI-H460; 3 µM in the experiment with Nucleic Acid [5].
Turning to `COc1ccc2cc3[n+](cc2c1NCCCN(C)C)CCc1cc2c(cc1-3)OCO2`, the ΔTm was determined as 20 °C in the experiment on Nucleic Acid [1] and 1 °C in the experiment on Nucleic Acid [6]. Moreover, the IC50 in [2] was 29 µM; in the experiment with ECV-304 [3] it was over 100 µM; in the experiment with HL-60 [4], 27.5 µM; with NCI-H460, 64 µM; in the experiment on Nucleic Acid [5], 3.3 µM.
For the compound `COc1ccc2cc3[n+](cc2c1NCCCCCCN)CCc1cc2c(cc1-3)OCO2`, the ΔTm came out at 29 °C in the experiment with Nucleic Acid [1] and 2 °C with Nucleic Acid [6]. In addition, the IC50 in experiment [2] was 4 µM; in the experiment with ECV-304 [3], over 100 µM; in the experiment on HL-60 [4] it was 5.5 µM; with NCI-H460, 9 µM; in the experiment with Nucleic Acid [5], 2 µM. Further, the inhibition result in the experiment with ECV-304 [9] and with HL-60 [13] was “Active” throughout. The outcome with ECV-304 [11] and in the experiment on HL-60 [14] was Active.
With `COc1ccc2cc3[n+](cc2c1NCCN(C)C)CCc1cc2c(cc1-3)OCO2`, the ΔTm stood at 19 °C with Nucleic Acid [1] and 0 °C with Nucleic Acid [6]. The IC50 in experiment [2] is 36 µM; in the experiment on ECV-304 [3], over 100 µM; in the experiment with HL-60 [4], 38 µM; with NCI-H460, 56 µM; in the experiment with Nucleic Acid [5], 3.9 µM.
